Experimental data: patent US20030109705A1, “Novel cyanoenamines useful as ligands for modulating gene expression in plants or animals” (priority 2001, published 2003)
≈ marks a conversion by molar mass, not a printed value.

What was measured:
[1] = molecular target: T1, truncated Manduca EcR-VP16 (Manduca sexta, UniProt P49883); experiment: Cell-based luciferase reporter assay of transcriptional activation by EcR receptor plasmid (MMV) in S2 Drosophila cells; settings: ligand 2 μM, harvested 24 hours after addition, ratio relative to reporter construct without ligand
T1 construct: A truncated Manduca EcR containing domains C, D and E of the receptor was constructed as follows; engineered start Met (in-frame ATG) (N); expressed in transfected cells; host or cells: S2 Drosophila cells (ATCC CRL-1963), transiently transfected with plasmid MMV (pPacU backbone)
Description: A minimal promoter vector was made by ligating a synthetic TATA box sequence oligonucleotide pair, 5′-agcttgagggtataatg-3′ (SEQ ID NO: 1) and 3′-actcccatattactcga-5′ (SEQ ID NO:2), into the HindIII site of vector pGL3-basic (Promega) so that the HindIII site was recreated 5′ to the inserted oligonucleotide and destroyed between the oligonucleotide and the downstream luciferase gene. This vector was designated TATA5.
The binding site from the hsp27 gene (Koelle et al., Cell 67(1): 59-77 (1991)) was made with the oligonucleotide pair, 5′-[…]-3′ (SEQ ID NO:3) and 3′-[…]-5′ (SEQ ID NO:4). This site was multimerized and ligated into the BglII site of vector TATA-5. One isolate, pCGS154, contained the sequence below in the inserted region, having 2 pairs of sites in inverted orientations. […] The sequence of the inserted region in pCGS154 is shown below:
PCR primers were designed based on the published sequence for Manduca Sexta ecdysone receptor (EcR) (genbank accession number U19812 (SEQ ID Nos:6 and 7) to clone the gene in two halves. RNA was prepared from prepupae larva of Manduca sexta using the LiCl/phenol method (Current Protocols in Molecular Biology, Vol. 1, Unit 4.3, 1987, John Wiley and Sons, publishers) and 1 μg of total RNA was used to prepare cDNA using MMLV reverse transcriptase (Promega). The cDNA was used in a PCR reaction with the primers described above to generate two PCR products for the 5′ and 3′ halves of the gene. These were subcloned into the pGEM-TA vector (Promega) and sequenced. The two fragments were joined at a unique Ndel site within each fragment and ligated into pBS-KS (Stratagene) to create a full length Manduca sexta EcR clone named pBSFLMa. A HindIII site followed by an inframe stop codon and BamHI site was placed at the 3′ end of the E domain (ligand binding domain) of the Manduca EcR receptor using the oligonucleotide: 5′-[…]-3′ (SEQ ID NO:8).
A truncated Manduca EcR containing domains C, D and E of the receptor was constructed as follows. A BamHI site and in-frame ATG was engineered just 5′ to the C domain using the degenerate primers 5′-ggatccatgggycgagaagaattrtcaccr-3′ (SEQ ID NO:9) and 5′-ccacrtcccagatctcctcga-3′ (SEQ ID NO:10). This fragment was then joined using the Nde site to the 3′ end of Manduca EcR, which has an engineered HindIII site at the 3′ end as described above.
A fragment containing the herpes simplex VP16 transactivation domain was cloned from plasmid 35S/USP-VP16 (U.S. Pat. No. 5,880,333) using the PCR primers 5′-aagcttgcccccccgaccg-3′ (SEQ ID NO:11) (placing a HindIII site at the 5′ end of the domain) and 5′-[…]-3′ (SEQ ID NO:12) (placing an inframe stop codon followed by BamHI and Xbal sites at the 3′ end of the domain). The VP16 domain was fused in frame to the 3′ end of the E domain of the ecdysone receptor using the HindIII site 3′ to EcR clone and the HindIII site engineered at the 5′ end of VP16.
The plasmid pPacU (Courey A J and Tjian R (1988) Cell 55, 887-898) was used as the starting vector for expression constructs. The truncated Manduca EcR-VP16 was ligated into pPacU using the BamHI sites flanking the coding region to create the construct referred to as MMV.
An in vivo cell based assay was used to measure transcriptional activation by the EcR receptor plasmid in the presence of the chemical ligands as described above. S2 Drosophila cells (ATCC CRL-1963) (commonly known as cells from the fruit fly) were transiently transfected with luciferase reporter (pCGS154) and receptor expression plasmid (MMV) using the calcium phosphate precipitation procedure (Di Nocera and David (1983) PNAS 80, 7095-7098). S2 cells were plated in 96 well format at a density of 2×10^5 in 166.6 μl of Schneider's Drosophila media supplemented with antibiotics and 10% heat inactivated fetal bovine serum (GIBO-BRL). […]

[2] = system: Spodoptera littoralis; experiment: Spodoptera littoralis larvicide, feeding/contact activity on sprayed cotton leaf discs; assay type: in vivo; settings: foliar, L1 larvae on sprayed cotton leaf discs, checked 2 and 6 days after treatment, read-out: Insecticidal activity (EC80 ppm) SPODLI
Description: Spodoptera littoralis (abbreviated as SPODLI) (commonly known as Egyptian cotton leafworm): larvicide, feeding/contact activity. Cotton leaf discs were placed on agar in petri dishes and individually sprayed with test solution of cyanoenamine in an application chamber. After drying, the leaf discs were infested with 20 to 25 L1 larvae. The samples were checked for mortality, repellent effect, feeding behavior, and growth regulation 2 and 6 days after treatment. Each of Spodopertera littoralis and Heliothis virescens is a larval form of an insect in the order Lepidoptera.

[3] = system: Heliothis virescens; experiment: Heliothis virescens ovo-larvicide, feeding/contact activity on eggs on artificial diet; assay type: in vivo; settings: 144 h, fresh eggs (0 to 24 hours old) on artificial diet, 6 days incubation, read-out: Insecticidal activity (EC80 ppm) Hv
Procedure: Heliothis virescens (abbreviated as Hv) (commonly known as tobacco budworm): ovo-larvicide, feeding/contact activity. 30 to 35 fresh eggs (0 to 24 hours old), deposited on filter paper, were placed in petri dishes on a layer of artificial diet and 0.8 mL of each test solution of cyanoenamine was individually pipetted onto them. After an incubation period of 6 days, samples were checked for egg mortality, larval mortality, and growth regulation.
Each of Spodopertera littoralis and Heliothis virescens is a larval form of an insect in the order Lepidoptera.

T1 sequence (P49883 112-535, added parts left off): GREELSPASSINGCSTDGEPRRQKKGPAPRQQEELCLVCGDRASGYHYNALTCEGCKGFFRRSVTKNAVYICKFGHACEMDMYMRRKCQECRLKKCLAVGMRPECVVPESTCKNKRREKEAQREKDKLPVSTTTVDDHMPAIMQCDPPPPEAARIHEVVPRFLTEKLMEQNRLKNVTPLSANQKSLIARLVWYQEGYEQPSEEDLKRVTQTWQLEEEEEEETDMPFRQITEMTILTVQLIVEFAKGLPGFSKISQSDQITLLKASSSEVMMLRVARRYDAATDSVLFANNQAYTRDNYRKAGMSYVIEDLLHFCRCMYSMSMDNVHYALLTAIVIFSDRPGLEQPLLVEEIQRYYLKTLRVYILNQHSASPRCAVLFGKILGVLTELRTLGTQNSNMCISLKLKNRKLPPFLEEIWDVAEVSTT
T1 sequence (P20153 whole entry partner, the tested form may be a part): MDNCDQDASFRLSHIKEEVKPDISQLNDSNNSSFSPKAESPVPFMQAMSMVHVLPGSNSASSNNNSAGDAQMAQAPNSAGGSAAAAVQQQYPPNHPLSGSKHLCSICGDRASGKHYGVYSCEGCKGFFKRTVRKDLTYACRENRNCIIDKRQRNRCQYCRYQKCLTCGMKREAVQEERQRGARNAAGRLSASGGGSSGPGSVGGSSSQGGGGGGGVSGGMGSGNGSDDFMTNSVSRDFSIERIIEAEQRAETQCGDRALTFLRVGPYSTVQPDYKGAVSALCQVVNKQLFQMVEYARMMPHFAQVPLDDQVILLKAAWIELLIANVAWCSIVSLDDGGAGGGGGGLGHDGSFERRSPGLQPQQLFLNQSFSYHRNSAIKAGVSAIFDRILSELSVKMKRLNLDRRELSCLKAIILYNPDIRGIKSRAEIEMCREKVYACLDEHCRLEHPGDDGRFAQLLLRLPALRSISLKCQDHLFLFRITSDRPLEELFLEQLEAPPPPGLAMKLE

Compound | Gene switch activity fold induction [1] [fold induction] | EC80 [2] [µg/mL] | EC80 [3] [µg/mL]
Cc1cccc(/C(C#N)=C(\NC(=O)c2cccc(C)c2C)C(C)(C)C)c1 | 66 |  | 
Cc1c(Cl)cccc1C(=O)N/C(=C(/C#N)c1ccccc1)C(C)(C)C | 191 |  | 
Cc1cccc(C(=O)N/C(=C(/C#N)c2ccccc2)C(C)(C)C)c1C | 636 |  | 
Cc1c(Br)cccc1C(=O)N/C(=C(/C#N)c1ccccc1)C(C)(C)C | 1112 |  | 
Cc1cc(C)cc(/C(C#N)=C(\NC(=O)c2cccc(Cl)c2Cl)C(C)(C)C)c1 | 1145 |  | 
CCc1c(OC)cccc1C(=O)N/C(=C(/C#N)c1ccccc1)C(C)(C)C | 239 |  | 
COc1cccc(C(=O)N/C(=C(/C#N)c2ccccc2)C(C)(C)C)c1C | 913 |  | 
Cc1cc(C)cc(/C(C#N)=C(\NC(=O)c2cccc(Cl)c2C)C(C)(C)C)c1 [drawing 443] |  | 50 (≈ 131 µM) | 5 (≈ 13.1 µM)
Cc1cccc(/C(C#N)=C(\NC(=O)c2cccc(Br)c2C)C(C)(C)C)c1 [drawing 444] |  | 200 (≈ 486 µM) | 200 (≈ 486 µM)
Cc1cc(C)cc(/C(C#N)=C(\NC(=O)c2cccc(Br)c2C)C(C)(C)C)c1 [drawing 445] |  | > 50 | > 50
CC(C)(C)/C(NC(=O)c1c(F)cccc1F)=C(\C#N)c1ccccc1 [drawing 446] |  | > 100 | > 100
Cc1cc(C)cc(/C(C#N)=C(\NC(=O)c2cccc(C)c2C)C(C)(C)C)c1 [drawing 447] |  | 50 (≈ 139 µM) | 50 (≈ 139 µM)
COc1cccc(C(=O)N/C(=C(/C#N)c2cc(C)cc(C)c2)C(C)(C)C)c1C [drawing 448] |  | 100 (≈ 266 µM) | 100 (≈ 266 µM)
COc1cccc(C(=O)N/C(=C(/C#N)c2cccc(C)c2)C(C)(C)C)c1C [drawing 449] |  | 200 (≈ 552 µM) | 200 (≈ 552 µM)
CCc1ccc(C(=O)N/C(=C(/C#N)c2ccccc2)C(C)(C)C)cc1 [drawing 450] |  | > 100 | > 100
Cc1cc(C)cc(/C(C#N)=C(\NC(=O)c2cccc(Cl)c2C)C(C)(C)C)c1 [drawing 453] | 225 |  | 
Cc1cccc(/C(C#N)=C(\NC(=O)c2cccc(Br)c2C)C(C)(C)C)c1 [drawing 457] | 1012 |  | 
Cc1cc(C)cc(/C(C#N)=C(\NC(=O)c2cccc(Br)c2C)C(C)(C)C)c1 [drawing 458] | 1121 |  | 
CC(C)(C)/C(NC(=O)c1c(F)cccc1F)=C(\C#N)c1ccccc1 [drawing 459] | 29 |  | 
Cc1cc(C)cc(/C(C#N)=C(\NC(=O)c2cccc(C)c2C)C(C)(C)C)c1 [drawing 460] | 893 |  | 
COc1cccc(C(=O)N/C(=C(/C#N)c2cc(C)cc(C)c2)C(C)(C)C)c1C [drawing 462] | 314 |  | 
COc1cccc(C(=O)N/C(=C(/C#N)c2cccc(C)c2)C(C)(C)C)c1C [drawing 463] | 364 |  | 
CCc1ccc(C(=O)N/C(=C(/C#N)c2ccccc2)C(C)(C)C)cc1 [drawing 464] | 394 |  | 
